Assay results reported in patent publication US20140364428A1, “5-(3-AMINOPHENYL)-5-ALKYL-5,6-DIHYDRO-2H-[1,4]OXAZIN-3-AMINE DERIVATIVES” (Janssen Pharmaceutica NV, priority 2011, published 2014).

Columns and labels:
[1] = tested on: Abeta 1-42 produced and secreted into the medium of human neuroblastoma SKNBE2 cells; assay: Cellular αLisa assay in SKNBE2 cells, Abeta 1-42; type: cell-based; conditions: SKNBE2 cells expressing wild type hAPP695, incubated for 18 hours, read-out: Cellular αLisa assay in SKNBE2 cells Abeta 42 pIC50 (converted)
Method: (§1) In two αLisa assays the levels of Abeta total and Abeta 1-42 produced and secreted into the medium of human neuroblastoma SKNBE2 cells are quantified. The assay is based on the human neuroblastoma SKNBE2 expressing the wild type Amyloid Precursor Protein (hAPP695). The compounds are diluted and added to these cells, incubated for 18 hours and then measurements of Abeta 1-42 and Abeta total are taken. Abeta total and Abeta 1-42 are measured by sandwich αLisa. αLisa is a sandwich assay using biotinylated antibody AbN/25 attached to streptavidin coated beads and antibody Ab4G8 or cAb42/26 conjugated acceptor beads for the detection of Abeta total and Abeta 1-42 respectively. In the presence of Abeta total or Abeta 1-42, the beads come into close proximity. The excitation of the donor beads provokes the release of singlet oxygen molecules that trigger a cascade of energy transfer in the acceptor beads, resulting in light emission. Light emission is measured after 1 hour incubation (excitation at […] and emission at 615 nm).
(§2) A best-fit curve is fitted by a minimum sum of squares method to the plot of % Controlmin versus compound concentration. From this an IC50 value (inhibitory concentration causing 50% inhibition of activity) can be obtained.

BACE1 = target: T1, BACE1 (Homo sapiens, UniProt P56817); assay: Biochemical FRET based assay; conditions: recombinant BACE1 protein, APP derived 13 amino acids peptide substrate ('Swedish' mutation), 120 minutes at room temperature, pH 5.0; read-out: Biochemical FRET based assay pIC50 (converted)
T1 construct: recombinant BACE1 protein in a final concentration of 1 mg/ml
T1 sequence (P56817 46-501): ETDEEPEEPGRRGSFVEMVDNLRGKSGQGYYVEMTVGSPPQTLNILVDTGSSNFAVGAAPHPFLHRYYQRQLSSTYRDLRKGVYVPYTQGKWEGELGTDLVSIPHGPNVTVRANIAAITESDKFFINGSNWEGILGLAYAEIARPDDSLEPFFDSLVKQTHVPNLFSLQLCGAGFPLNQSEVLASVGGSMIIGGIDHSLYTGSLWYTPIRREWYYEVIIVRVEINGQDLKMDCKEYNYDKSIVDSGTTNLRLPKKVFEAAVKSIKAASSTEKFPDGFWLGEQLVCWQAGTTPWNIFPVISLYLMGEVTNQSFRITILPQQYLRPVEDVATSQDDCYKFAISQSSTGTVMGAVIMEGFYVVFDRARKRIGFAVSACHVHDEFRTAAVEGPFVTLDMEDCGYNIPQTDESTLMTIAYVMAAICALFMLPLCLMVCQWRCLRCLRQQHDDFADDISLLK
Source text: This assay is a Fluorescence Resonance Energy Transfer Assay (FRET) based assay. The substrate for this assay is an APP derived 13 amino acids peptide that contains the ‘Swedish’ Lys-Met/Asn-Leu mutation of the amyloid precursor protein (APP) beta-secretase cleavage site. This substrate also contains two fluorophores: (7-methoxycoumarin-4-yl) acetic acid (Mca) is a fluorescent donor with excitation wavelength at 320 nm and emission at 405 nm and 2,4-Dinitrophenyl (Dnp) is a proprietary quencher acceptor. […] Upon cleavage by BACE1, the fluorophore Mca is separated from the quenching group Dnp, restoring the full fluorescence yield of the donor. The increase in fluorescence is linearly related to the rate of proteolysis.
Briefly in a 384-well format recombinant BACE1 protein in a final concentration of 1 mg/ml is incubated for 120 minutes at room temperature with […] in incubation buffer (40 mM Citrate buffer pH 5.0, 0.04% PEG, 4% DMSO) in the absence or presence of compound. Next the amount of proteolysis is directly measured by fluorescence measurement at T=0 and T=120 (excitation at 320 nm and emission at 405 nm). Results are expressed in RFU (Relative Fluorescence Units), as difference between T120 and TO.
as §2

[2] = tested on: Abeta total produced and secreted into the medium of human neuroblastoma SKNBE2 cells; assay: Cellular αLisa assay in SKNBE2 cells, Abeta total; type: cell-based; conditions: SKNBE2 cells expressing wild type hAPP695, incubated for 18 hours, read-out: Cellular αLisa assay in SKNBE2 cells Abetatotal pIC50 (converted)
Method: as §1, §2

IC50 [1] | melting point | IC50 (BACE1) | IC50 [2] | Structure (SMILES)
9.12 nM | 136.93 °C | 58.9 nM | 10.5 nM | COc1cccnc1Nc1ccc(F)c([C@@]2(C)N=C(N)COC2C(F)F)c1 (single isomer, unassigned) [Compound 4, (5R,6R*)-6-(Difluoromethyl)-5-{2-fluoro-5-[(3-methoxypyridin-2-yl)amino]phenyl}-5-methyl-5,6-dihydro-2H-1,4-oxazin-3-amine]
60.3 nM | – | 26.3 nM | 53.7 nM | COc1cccnc1Nc1cccc([C@@]2(C3CC3)N=C(N)CO[C@@]2(F)C(F)(F)F)c1 [Compound 1, (5R,6S)-5-cyclopropyl-6-fluoro-5-{3-[(3-methoxypyridin-2-yl)amino]phenyl}-6-(trifluoromethyl)-5,6-dihydro-2H-1,4-oxazin-3-amine]
24 nM | – | 162 nM | 19.5 nM | COc1cccnc1Nc1ccc(F)c([C@@]2(C)N=C(N)CO[C@@H]2F)c1 [Compound 2, (5R,6R)-6-fluoro-5-{2-fluoro-5-[(3-methoxypyridin-2-yl)amino]phenyl}-5-methyl-5,6-dihydro-2H-1,4-oxazin-3-amine]
105 nM | – | 759 nM | 89.1 nM | COc1cccnc1Nc1ccc(F)c([C@@]2(C)N=C(N)COC2=C(F)F)c1 [Compound 3, (5R)-6-(difluoromethylidene)-5-{2-fluoro-5-[(3-methoxyPyridin-2-yl)amino]phenyl}-5-methyl-5,6-dihydro-2H-1,4-oxazin-3-amine]
1260 nM | – | 1950 nM | 1100 nM | C[C@]1(c2cc(Nc3ncccn3)ccc2F)N=C(N)CO[C@@H]1F [Compound 5, (5R,6R)-6-fluoro-5-[2-fluoro-5-(pyrimidin-2-ylamino)phenyl]-5-methyl-5,6-dihydro-2H-1,4-oxazin-3-amine]
21.4 nM | – | 138 nM | 20.9 nM | COc1cccnc1Nc1ccc(F)c([C@@]2(C)N=C(N)CO[C@H]2C(F)(F)F)c1 [Compound 6, (5R,6R)-5-{2-fluoro-5-[(3-methoxypyridin-2-yl)amino]phenyl}-5-methyl-6-(trifluoromethyl)-5,6-dihydro-2H-1,4-oxazin-3-amine]
759 nM | – | 3720 nM | 832 nM | C[C@]1(c2cc(Nc3ncccn3)ccc2F)N=C(N)CO[C@H]1C(F)(F)F [Compound 7, (5R,6R)-5-[2-fluoro-5-(pyrimidin-2-ylamino)phenyl]-5-methyl-6-(trifluoromethyl)-5,6-dihydro-2H-1,4-oxazin-3-amine]
129 nM | – | 309 nM | 138 nM | COc1nccnc1Nc1ccc(F)c([C@@]2(C)N=C(N)CO[C@@H]2F)c1 [Compound 8, (5R,6R)-6-fluoro-5-{2-fluoro-5-[(3-methoxypyrazin-2-yl)amino]phenyl}-5-methyl-5,6-dihydro-2H-1,4-oxazin-3-amine]
129 nM | – | 224 nM | 87.1 nM | CC1(c2cc(Nc3ncccc3C#N)ccc2F)N=C(N)COC1F (stereo not shown) [Compound 9]
